Reference: patent EP4818176A1, “TETRACYCLIC DERIVATIVE INHIBITOR, AND PREPARATION METHOD AND USE THEREFOR” (Shanghai Hansoh Biomedical Co., Ltd., priority 2023, dated 2025)
Like-named read-outs stand apart in the source and are kept apart here.

Experiments:
[1] = target: T1, PRMT5/MEP50-MTA protein complex (Homo sapiens, UniProt O14744); assay: Thermal shift assay: thermal stability (melting temperature) of PRMT5/MEP50-MTA protein complex; assay type: binding; settings: final compound concentration 8 µM; 2 µM PRMT5/MEP50, 2 µM MTA; Tm minus Tm of DMSO vehicle control
T1 construct: purchased Viva Biotech
In short: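 Human PRMT5/MEP50 (2 µM) was preincubated 30 min with 2 µM MTA in 50 mM HEPES, 10 mM DTT, 250 mM NaCl with SYPRO Orange. Compound at 8 µM final (2.5% DMSO vehicle) was added for 10 minutes, then samples were heated 25°C to 95°C at 0.03°C/s. Tm was derived from the melt curve.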

HCT116 wild-type cells = assay: Cell proliferation inhibition (CellTiter-Glo), HCT116 wild-type cells; assay type: cell-based; settings: Homo sapiens
From the text: (§1) Test Example 2: Determination of the inhibitory effect of the compounds of the present invention on the proliferation activity of HCT116 and MTAP Knockout HCT116 cells.
(§2) 1 Experimental objective: The objective of this test example is to determine the inhibitory effect of the compound on the proliferation activity of HCT116 wild-type and HCT116 MTAP knockout cells. 2 Experimental instruments: Centrifuge (Eppendorf 5810R); microplate reader (BioTek Synergy H1 or PerkinElmer Envision); pipette (Eppendorf or Rainin). 3 Experimental reagents: HCT116 and MTAP Knockout HCT116 cells were purchased from Nanjing Cobioer; Cell Titer-Glo was purchased from Promega (Cat. No. G7573); McCoy'5A was purchased from Gibco (Cat. No. 12330031); FBS was purchased from Gibco (Cat. No. 10091148); PBS was purchased from Gibco (Cat. No. 10010023); trypsin was purchased from Gibco (Cat. No. 25200056); cell culture plates were purchased from Corning (Cat. No. 3610). 4 Experimental method: HCT116 and MTAP Knockout HCT116 cells were cultured in McCoy'5A medium containing 10% FBS until an appropriate cell density was reached. The cells were then collected and adjusted to a suitable concentration using complete medium. The cell suspension was seeded into a 96-well plate at 90 µL per well and allowed to adhere overnight in a 37°C, 5% CO2 incubator. Compound solutions of various concentrations were prepared using DMSO and culture medium, with a vehicle control set. The compound solutions were added to the 96-well plate at 10 µL per well, and the plate was incubated in a 37°C, 5% CO2 incubator for an additional 72-240 hours. After incubation, CellTiter-Glo solution was added, and the mixture was mixed uniformly by shaking, followed by incubation in the dark for 10 to 30 minutes. Luminescence was measured using a Synergy H1 or Envision microplate reader. 5 Experimental data processing method: The inhibition rate was calculated using the luminescence signal values, and the concentrations along with the inhibition rates were subjected to non-linear regression curve fitting using Graphpad Prism software to obtain the IC50 values.

[2] = tested on: MTAP Knockout HCT116 cells; assay: Cell proliferation inhibition (CellTiter-Glo), HCT116 MTAP knockout cells; assay type: cell-based; settings: for Selectivity: HCT116 IC50 versus MTAP Knockout HCT116 IC50; for IC50: Homo sapiens
From the text: as §1, §2

[3] = Pharmacokinetics in rats (plasma) after oral administration; assay type: in vivo; settings: rat, po, SD rats, p.o. 5 mg/kg; for Cmax: read-out: Cmax; for MRT inf: read-out: MRT0-∞; for Tmax: read-out: tmax
Procedure: Test Example 4: Determination of the pharmacokinetics of the compounds of the present invention in rats (plasma) after oral administration.
1 Study objective: SD rats were used as test animals to study the pharmacokinetic behaviour of the following example compounds in rats (plasma) after oral administration at a dose of 5 mg/kg. 2 Test scheme • 2.1 Test drugs: Vehicle formula: 0.5% CMC-Na (1% Tween 80); the examples of the present invention, made in house. • 2.2 Test animals: 3 SD rats per group, male, purchased from Shanghai Bikai Keyi Biotechnology Co., Ltd., with animal license number (SCXK (Shanghai) 2018-0006, No.20180006037467). • 2.3 Administration: 3 SD rats per group, male, were fasted overnight and then respectively administered PO at a dose of 5 mg/kg and a volume of 10 mL/kg. • 2.4 Sample collection: 0.2 mL of blood was collected from the jugular vein of rats before administration and at 0, 0.25, 0.5, 1, 2, 4, 6, 8 and 24 h after administration, and placed in EDTA-K2test tubes, and the test tubes were centrifuged at 6,000 rpm at 4°C for 6 min to separate the plasma, which was stored at -80°C. The animals were fed 4 h after administration. • 2.5 Sample treatment • 1) 160 uL of acetonitrile was added to 40 uL of plasma sample for precipitation, and after mixing, the mixture was centrifuged at 3,500 × g for 5-20 minutes. • 2) 100 uL of the treated supernatant solution was taken for LC/MS/MS analysis to determine the concentration of the test compounds. • 2.6 Liquid phase analysis • Liquid phase conditions: Shimadzu LC-20AD pump;mass spectrometry conditions: AB Sciex API 4000 mass spectrometer • Chromatographic column: Phenomenex Gemiu 5 um C18 50 × 4.6 mm • Mobile phase: solution A: 0.1% formic acid in water, solution B: methanol • Flow rate: 1.0 mL/min, elution time: 0-4.0 min, with eluents as follows:
Experimental results and analysis: The main pharmacokinetic parameters were calculated using WinNonlin 8.2.

[4] = HCT-116, HCT116 wild-type cells, proliferation inhibition, Cell Titer-Glo, read-out: HCT116 IC50
[5] = HCT-116, MTAP Knockout HCT116 cells, proliferation inhibition, Cell Titer-Glo, read-out: MTAP Knockout HCT116 IC50
[6] = HCT-116, read-out: MTAP Knockout HCT116 IC50

T1 sequence (O14744 whole entry): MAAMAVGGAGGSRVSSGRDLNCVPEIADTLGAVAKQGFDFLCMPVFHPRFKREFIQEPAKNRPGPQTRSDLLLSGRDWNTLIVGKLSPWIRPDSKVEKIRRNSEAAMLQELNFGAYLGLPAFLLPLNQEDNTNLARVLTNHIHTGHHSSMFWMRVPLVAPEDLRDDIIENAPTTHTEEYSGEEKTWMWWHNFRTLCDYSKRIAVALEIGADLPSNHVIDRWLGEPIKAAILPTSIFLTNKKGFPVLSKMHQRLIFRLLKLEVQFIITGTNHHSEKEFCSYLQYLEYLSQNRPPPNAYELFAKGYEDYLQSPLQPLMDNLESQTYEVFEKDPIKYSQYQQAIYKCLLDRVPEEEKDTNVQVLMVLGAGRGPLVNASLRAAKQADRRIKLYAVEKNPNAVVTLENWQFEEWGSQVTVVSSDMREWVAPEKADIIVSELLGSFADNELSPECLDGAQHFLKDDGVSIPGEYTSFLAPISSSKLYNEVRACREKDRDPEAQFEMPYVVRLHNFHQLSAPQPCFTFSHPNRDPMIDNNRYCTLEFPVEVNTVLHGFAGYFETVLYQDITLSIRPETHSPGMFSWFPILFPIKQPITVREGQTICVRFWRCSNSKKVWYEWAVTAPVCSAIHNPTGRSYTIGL
T1 sequence (Q9BQA1 whole entry partner): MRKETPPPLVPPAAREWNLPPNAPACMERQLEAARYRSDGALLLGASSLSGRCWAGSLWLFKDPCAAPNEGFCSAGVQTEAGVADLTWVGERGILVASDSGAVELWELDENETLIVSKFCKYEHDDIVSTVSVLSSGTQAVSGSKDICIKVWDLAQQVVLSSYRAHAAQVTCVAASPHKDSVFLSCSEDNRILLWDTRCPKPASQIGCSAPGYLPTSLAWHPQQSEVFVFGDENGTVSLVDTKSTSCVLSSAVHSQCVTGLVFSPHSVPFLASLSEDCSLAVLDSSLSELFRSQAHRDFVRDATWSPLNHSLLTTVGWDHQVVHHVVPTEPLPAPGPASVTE

Nc1nc2cc3c(cc2n2cncc12)C(=O)N(C1COc2cc(C(F)(F)F)ccc21)CCC/C=C\3 (racemic) [Example 164, (Z)-4-Amino-12-(6-(trifluoromethyl)-2,3-dihydrobenzofuran-3-yl)-9,10,11,12-tetrahydro-13H-azo[4,3-g]imidazo[1,5-a]quinoxalin-13-one]
ΔTm at 8 µM [1]: 11.2 °C | IC50 (HCT116 wild-type cells; [4]): 6630 nM | Selectivity [2]: 406 | IC50 [2, 5]: 16 nM | AUC(0-inf) ([3]; in vivo): 2520 ng·h/mL | half-life ([3]; in vivo): 282 min | Cmax ([3]; in vivo): 183 ng/mL | MRT inf ([3]; in vivo): 7.6 h | Tmax ([3]; in vivo): 4 h

Nc1nc2cc3c(cc2c2c1COC2)C(=O)N(C1COCc2nc(C(F)(F)F)ccc21)CCC/C=C\3 (single isomer, unassigned) [Example 165-P1]
ΔTm at 8 µM [1]: 11.9 °C | IC50 (HCT116 wild-type cells; [4]): 682 nM | Selectivity [2]: 132 | IC50 [2, 5]: 5.2 nM | AUC(0-inf) ([3]; male): 999 ng·h/mL | half-life ([3]; male): 90 min | Cmax ([3]; male): 321 ng/mL | MRT inf ([3]; male): 2.5 h | Tmax ([3]; male): 1 h

Nc1nc2cc3c(cc2n2cncc12)C(=O)N(Cc1ccc(S(F)(F)(F)(F)F)cn1)CCCOC3 [Example 414, 4-Amino-12-((5-(pentafluoro-λ^6-sulphanyl)pyridin-2-yl)methyl)-9,10,11,12-tetrahydroimidazo[1,5-a][1,5]oxazonino[8,7-g]quinoxalin-13(7H)-one]
ΔTm at 8 µM [1]: 12.3 °C | IC50 (HCT116 wild-type cells; [4]): 229 nM | Selectivity [2]: 47 | IC50 [2, 5]: 4.9 nM | AUC(0-inf) ([3]; male): 949 ng·h/mL | half-life ([3]; male): 78 min | Cmax ([3]; male): 208 ng/mL | MRT inf ([3]; male): 3.3 h | Tmax ([3]; male): 2 h

Nc1nc2cc3c(cc2n2cncc12)C(=O)N(Cc1ccc(C(F)(F)F)cn1)CC/C=C\3 [Example 416, (Z)-4-Amino-11-(5-(trifluoromethyl)pyridin-2-yl)methyl-10,11-dihydroazocino[4,3-g]imidazo[1,5-a]quinoxalin-12(9H)-one]
ΔTm at 8 µM [1]: 12.4 °C | IC50 (HCT116 wild-type cells; [4]): 222 nM | Selectivity [2]: 93 | IC50 [2, 5]: 2.4 nM | AUC(0-inf) ([3]; male): 1520 ng·h/mL | half-life ([3]; male): 78 min | Cmax ([3]; male): 395 ng/mL | MRT inf ([3]; male): 2.9 h | Tmax ([3]; male): 2 h

Nc1nc2cc3c(cc2c2c1COC2)C(=O)N(Cc1ccc(S(F)(F)(F)(F)F)cn1)CCCOC3 [Example 434, 4-Amino-3-methyl-12-((5-(pentafluorosulphanyl)pyridin-2-yl)methyl)-3,7,9,10,11,12-hexahydrofuro[3,4-c][1,5]oxazolo[7,8-g]quinolin-13(1H)-one]
ΔTm at 8 µM [1]: 12.2 °C | IC50 (HCT116 wild-type cells; HCT-116, read-out: HCT116 IC50): 578 nM | Selectivity [2]: 87 | IC50 [2, 6]: 6.7 nM | AUC(0-inf) [3]: 2330 ng·h/mL | half-life [3]: 186 min | Cmax [3]: 273 ng/mL | MRT inf [3]: 5.3 h | Tmax [3]: 2 h

C[C@H]1OCc2c1c(N)nc1cc3c(cc21)C(=O)N(Cc1ccc(S(F)(F)(F)(F)F)cn1)CCCOC3 [Example 437-P1, (R)-4-Amino-3-methyl-12-((5-(pentafluorosulphanyl)pyridin-2-yl)methyl)-3,7,9,10,11,12-hexahydrofuro[3,4-c][1,5]oxazolo[7,8-g]quinolin-13(1H)-one]
ΔTm at 8 µM [1]: 12.6 °C | IC50 (HCT116 wild-type cells; HCT-116, read-out: HCT116 IC50): 187 nM | Selectivity [2]: 85 | IC50 [2, 6]: 2.2 nM | AUC(0-inf) ([3]; in vivo): 2050 ng·h/mL | half-life ([3]; in vivo): 144 min | Cmax ([3]; in vivo): 318 ng/mL | MRT inf ([3]; in vivo): 3.7 h | Tmax ([3]; in vivo): 2 h

Nc1nc2cc3c(cc2c2c1COC2)C(=O)N(Cc1ccc(C(F)(F)F)cn1)CC/C=C\3 [Example 638, (Z)-4-Amino-11-((5-(trifluoromethyl)pyridin-2-yl)methyl)-3,9,10,11-tetrahydronaphthyrido[3,4-g]furo[3,4-e]quinoxalin-12(1H)-one]
ΔTm at 8 µM [1]: 12.3 °C | IC50 (HCT116 wild-type cells; HCT-116, read-out: HCT116 IC50): 318 nM | Selectivity [2]: 71 | IC50 [2, 6]: 4.5 nM | AUC(0-inf) [3]: 929 ng·h/mL | half-life [3]: 108 min | Cmax [3]: 241 ng/mL | MRT inf [3]: 3.5 h | Tmax [3]: 1.7 h
